Source: patent US20210379063A1, “ORAL AMINODIHYDROPHTHALAZINEDIONE COMPOSITIONS AND THEIR USE IN THE TREATMENT OF NON-VIRAL HEPATITIS” (Immunopharma Plus D.O.O., priority 2018, published 2021)
Where “and” joins values, the source holds several entries; their conditions need not be identical. Equal values may be shown once. Read-outs that look alike come from different tables or passages of the source. Marks after values point to notes of the source that are not given here.

What was measured:
[1] = system: Toxic hepatopathy degree II
Experimental: The patient received standard hepatic therapy: Duphalac 50 ml 3 times a day, Hepasol A 1000 ml, Heptral 800 mg. Detoxification therapy was carried out. […] The patient was monitored for another 1 month in a poison center.

porcine small intestine = conditions: for concentration in receptor compartment, small intestine, AVG / concentration in receptor compartment, small intestine: 10 mM donor solution; for concentration in receptor compartment, small intestine: single chambers
Experimental: Porcine Small Intestinal (SI) Permeability Procedure • Full thickness pig small intestinal delivered to Solubest on the day of the experiment. • Experiments were carried out on 6 slices 2 cm*2 cm with full thickness pig small intestinal sample • The intestinal was prepared so brush border side is facing the donor compartment. • According to Solubest protocol the excess mucus and connective tissue were removed • The receiver compartment contains 0.01M Phosphate Buffer pH 7.4 (PBS). • Receiver's samples were withdrawn at 5 time points (30 min, 60 min, 120 min, 4 hours and 6 hours). • Water pump was set to temp 38±1° C. in order to keep fixed temp in receptor department at 37±1° C.

porcine stomach (cardia) = conditions: 10 mM donor solution
[2] = Experimental: Title: FaSSGF: Fasted State Simulating Gastric Fluid
Preparation FaSSGF (for 2000 ml)
Name: FeSSGF: Fed State Simulating Gastric Fluid
Name: FaSSIF Fasted State Simulating Intestinal Fluid
Name: FeSSIF Fed State Simulating Intestinal Fluid
For preparation of 2 L media
Name: SCoF (Simulated Colonic Fluid)
Preparation of 100 ml solution
Prior to testing • Lactobacilli drops (100 million per dissolution/20 million per permeation donor compartment) added
Each presented dissolution data is a summary of 3 results.

PHMG poisoning = assay: Acute hepatitis caused by alcohol substitute PHMG in rats
Experimental: The experiment was carried out on 25 male white outbred rats weighing 200-300 g, in accordance with the recommendations of the international ethics committees on the humane treatment of laboratory animals (EU Council Directive 86/609 EEC dated Nov. 24, 1986). To create an experimental model, an aqueous solution of PHMG was used, which was administered intraperitoneally at a dose of 50 mg/100 g.

[3] = system: liver after introduction of carrageenan; conditions: for ALT, units/l / AST, units/l: carrageenan + Tamerit
Experimental: The experiments were carried out on 25 male Wistar rats weighing 200-220 g, in accordance with the recommendations of the international ethics committees on the humane treatment of laboratory animals (EU Council Directive 86/609 EEC dated Nov. 24, 1986). […] Its mechanism of action is based on the inhibition of the process of phagocytosis and the activity of lysosomal hydrolases of mononuclear phagocytes. The drug was administered intragastrically through a probe in an aqueous solution at a dose of 10 mg/kg. The choice of time frame (4, 17 hours after surgery) corresponds to the phases of liver regeneration.

[4] = system: porcine large intestine (colon); assay: Porcine large intestine permeability, Franz cell; conditions: for concentration in receptor comp, large intestine, AVG / concentration in receptor compartment, large intestine: 10 mM donor solution; for concentration in receptor compartment, large intestine: single chambers
Experimental: The intestine was prepared so the mucous side will be facing the donor compartment.

[5] = per os, enteric coated tablets, with standard hepatic therapy
[6] = PHMG 3 days + Tamerit intraperitoneally
[7] = PHMG 7 days + Tamerit intraperitoneally

For Nc1cccc2c(=O)[n-][nH]c(=O)c12.[Na+] [Tamerit, aminodihydrophthalazinedione sodium], the adverse effects ([1]; during the use of Tamerit) was “no adverse effects were noted”, the blood biochemical parameters [1, 5] was “fully normalized” and the “relief of symptoms of intoxication” value [1, 5] was “highly effective”. The “concentration in receptor compartment, small intestine, AVG” value (shortened to “concentration … small intestine, AVG”) (porcine small intestine; 0 min) was 0 ng/mL, the “concentration in receptor compartment, small intestine” value (porcine small intestine; 0 min) was 0 ng/mL and the “concentration … small intestine, AVG” value (porcine small intestine; 30 min) was 1000 ng/mL. For the same molecule, the “concentration … small intestine, AVG” value (porcine small intestine; 60 min) was 3000 ng/mL, the “concentration in receptor compartment, small intestine” value (porcine small intestine; 60 min, sodium) was 3500 ng/mL and 2400 ng/mL and the “concentration … small intestine, AVG” value (porcine small intestine; 120 min) was 6000 ng/mL. For the same molecule, the “concentration in receptor compartment, small intestine” value (porcine small intestine; 120 min, sodium) was 5400 ng/mL and 5600 ng/mL and 9100 ng/mL and 5100 ng/mL, the “concentration … small intestine, AVG” value (porcine small intestine; 240 min) was 12000 ng/mL and the “concentration … small intestine, AVG” value (porcine small intestine; 360 min) was 23000 ng/mL. The “concentration in receptor compartment, small intestine” value (porcine small intestine; 360 min, sodium) was 26400 ng/mL and 19500 ng/mL and 28700 ng/mL and 19000 ng/mL, the “Tamerit Permeability vs Propranolol Permeability” value (porcine small intestine; small intestine, FIG. 11) was “permeates better than propranolol” and the “permeation compared with Propranolol” value (porcine small intestine; small intestine, after 4 hours) was “three time better than Propranolol”. For the same molecule, the “concentration in receptor compartment, Tamerit stomach, AVG” value (“concentration … Tamerit stomach, AVG” below) (porcine stomach (cardia); 0 min) was 0 ng/mL, the “concentration in receptor compartment, Tamerit stomach” value (porcine stomach (cardia); 0 min, single chambers) was 0 ng/mL and the “concentration … Tamerit stomach, AVG” value (porcine stomach (cardia); 15 min) was 50 ng/mL. The “concentration … Tamerit stomach, AVG” value (porcine stomach (cardia); 30 min) was 41 ng/mL, the “concentration … Tamerit stomach, AVG” value (porcine stomach (cardia); 45 min) was 69 ng/mL and the “concentration … Tamerit stomach, AVG” value (porcine stomach (cardia); 90 min) was 85 ng/mL. For the same molecule, the “concentration … Tamerit stomach, AVG” value (porcine stomach (cardia); 120 min) was 104 ng/mL, the “Dissolution, %” value ([2]; FaSSGF pH 1.6, 15 min) was 88.24% and the “Dissolution, %” value ([2]; FaSSGF pH 1.6, 30 min) was 90.68%. For the same molecule, the “Dissolution, %” value ([2]; FaSSIF pH 6.5, 30 min, sodium) was 98.62%, the “Dissolution, %” value ([2]; FaSSIF pH 6.5, 60 min) was 103.11% and the “Dissolution, %” value ([2]; FaSSIF pH 6.5, 90 min) was 102.16%. For the same molecule, the “Dissolution, %” value ([2]; FaSSIF pH 6.5, 120 min) was 102.37%, the “Dissolution, %” value ([2]; FaSSIF pH 6.5, 180 min) was 103.78% and the Dissolution, % ([2]; FeSSCoF pH 6.0, 15 min, sodium) was 90% and 90.07%. For the same molecule, the Dissolution, % ([2]; FeSSCoF pH 6.0, 2 hr) was 89.21%, the Dissolution, % ([2]; FeSSCoF pH 6.0, 4 hr, sodium) was 100% and 102.12% and the Dissolution, % ([2]; FeSSCoF pH 6.0, 24 hr) was 95.77%. For the same molecule, the “Dissolution, %” value ([2]; FeSSGF pH 5.0, 15 min) was 86.83%, the “Dissolution, %” value ([2]; FeSSGF pH 5.0, 30 min) was 77.65% and the “Dissolution, %” value ([2]; FeSSGF pH 5.0, 45 min) was 75.6%. The “Dissolution, %” value ([2]; FeSSGF pH 5.0, 90 min) was 79.42%, the “Dissolution, %” value ([2]; FeSSIF pH 5.0, 30 min) was 79.65% and the “Dissolution, %” value ([2]; FeSSIF pH 5.0, 60 min) was 69.28%. The “Dissolution, %” value ([2]; FeSSIF pH 5.0, 90 min, sodium) was 90% and 87.40%, the “Dissolution, %” value ([2]; FeSSIF pH 5.0, 120 min) was 84.48% and the “Dissolution, %” value ([2]; FeSSIF pH 5.0, 180 min) was 88.50%. For the same molecule, the “pH at which Tamerit is the most soluble” value ([2]; Tamerit powder dissolution, FIG. 2) was 6.5, the stability ([2]; colonic conditions) was “very stable” and the stability ([2]; fast and fed conditions of the small intestinal) was “quite stable”. The stability ([2]; fast and fed gastric conditions) was “sufficient stability”, the dissolution ([2]; fast gastric media) was about 90% and the dissolution ([2]; fed gastric media) was 80-90%. The “degree of hepatocyte destruction” value (PHMG poisoning; 7th day after PHMG) was “minimal”, the “ALT, U/L” value (PHMG poisoning; PHMG 3rd day + Tamerit) was 5.7 ± 1.9 U/L and the “AST, U/L” value (PHMG poisoning; PHMG 3rd day + Tamerit) was 11.3 ± 0.6 U/L. The “GTP, U/L” value (PHMG poisoning; PHMG 3rd day + Tamerit) was 17.5 ± 2.0 U/L, the “ALT, U/L” value (PHMG poisoning; PHMG 7th day + Tamerit) was 8.1 ± 0.2 U/L and the “AST, U/L” value (PHMG poisoning; PHMG 7th day + Tamerit) was 12.1 ± 0.3 U/L. The “GTP, U/L” value (PHMG poisoning; PHMG 7th day + Tamerit) was 26.0 ± 3.4 U/L, the “Binuclear cells, %” value (PHMG poisoning; [6]) was 65.12 ± 0.14 % and the “Mitotic index, %” value (PHMG poisoning; [6]) was 38.26 ± 0.18 %. For the same molecule, the “Binuclear cells, %” value (PHMG poisoning; [7]) was 61.18 ± 0.24 %, the “Mitotic index, %” value (PHMG poisoning; [7]) was 45.6 ± 0.14* ** % and the “Mitotic index, %” value ([3]; Carrageenan 4 hours + Tamerit) was 0.65 ± 0.25 %. The Nuclear cytoplasmic index ([3]; Carrageenan 4 hours + Tamerit) was 0.36 ± 0.01, the “Number of binuclear cells, %” value ([3]; Carrageenan 4 hours + Tamerit) was 25.0 ± 3.58 % and the “Mitotic index, %” value ([3]; Carrageenan 17 hours + Tamerit) was 0.48 ± 0.12 %. The Nuclear cytoplasmic index ([3]; Carrageenan 17 hours + Tamerit) was 0.35 ± 0.02, the “Number of binuclear cells, %” value ([3]; Carrageenan 17 hours + Tamerit) was 29.2 ± 4.18 % and the activity of aminotransferases ([3]; after carrageenan) was “completely restores the activity of aminotransferases to the parameters of healthy animals”. The “ALT, units/l” value ([3]; 4 hours) was 40.2 ± 4.0 units/l, the “AST, units/l” value ([3]; 4 hours) was 85.4 ± 8.0 units/l and the “ALT, units/l” value ([3]; 17 hours) was 42.2 ± 3.5 units/l. For the same molecule, the “AST, units/l” value ([3]; 17 hours) was 83.5 ± 4.5 units/l, the “permeability through large intestine tissue, in words” value [4] was “good permeability” and the “concentration in receptor comp, large intestine, AVG” value (from here on “concentration … large intestine, AVG”) ([4]; 0 min) was 0 ng/mL. The “concentration in receptor compartment, large intestine” value ([4]; 0 min) was 0 ng/mL, the “concentration … large intestine, AVG” value ([4]; 30 min) was 5000 ng/mL and the “concentration … large intestine, AVG” value ([4]; 60 min) was 7000 ng/mL. For the same molecule, the “concentration … large intestine, AVG” value ([4]; 120 min) was 17000 ng/mL, the “concentration … large intestine, AVG” value ([4]; 240 min) was 35000 ng/mL and the “concentration in receptor compartment, large intestine” value ([4]; 240 min, sodium) was 30600 ng/mL and 25000 ng/mL and 36400 ng/mL and 49000 ng/mL. For the same molecule, the “concentration … large intestine, AVG” value ([4]; 360 min) was 48000 ng/mL, the “concentration … large intestine, AVG” value ([4]; 720 min) was 90000 ng/mL and the “time to reach steady state of permeation” value ([4]; large intestinal tissue) was “four”. The “Recovery from donor comp, %” value ([4]; large intestine, 0 min) was 0.00%, the “mg in receptor comp” value ([4]; large intestine, 0 min) was 0.000 mg and the “Recovery from donor comp, %” value ([4]; large intestine, 30 min) was 0.45%. For the same molecule, the “mg in receptor comp” value ([4]; large intestine, 30 min) was 0.026 mg, the “Recovery from donor comp, %” value ([4]; large intestine, 60 min) was 0.63% and the “mg in receptor comp” value ([4]; large intestine, 60 min) was 0.036 mg. For the same molecule, the “Recovery from donor comp, %” value ([4]; large intestine, 120 min) was 1.46%, the “mg in receptor comp” value ([4]; large intestine, 120 min) was 0.084 mg and the “Recovery from donor comp, %” value ([4]; large intestine, 240 min) was 3.07%. The “mg in receptor comp” value ([4]; large intestine, 240 min) was 0.176 mg, the “Recovery from donor comp, %” value ([4]; large intestine, 360 min) was 4.20% and the “mg in receptor comp” value ([4]; large intestine, 360 min) was 0.242 mg. For the same molecule, the “Tamerit Permeability vs Propranolol Permeability” value ([4]; large intestine, FIG. 11) was “permeates better than propranolol” and the “permeation compared with Propranolol” value ([4]; large intestine, after 4 hours) was “as good as Propranolol”.
